Reference: patent publication US5051419A, “Prevention or elimination of mycoplasma contamination of animal or plant cell cultures” (Dainippon Pharmaceutical Co., Ltd., priority 1988, dated 1991)
Converted amounts (≈) assume the structure as drawn.

How the values were obtained:
[1] = test system: mycoplasma; experiment: Anti-mycoplasmal activity (MIC, MMC), liquid dilution method, all species of Table 2 together; assay type: cell-based; conditions: in words
Description: (§1) The minimum growth inhibitory concentration (MIC, μg/ml) and minimum mycoplasmacidal concentration (MMC, μg/ml) of test chemicals were measured by the liquid dilution method. The method of measuring MIC in this example differs from that used in Test Example 1.
(§2) A 1,000 μg/ml aqueous solution of a test chemical was prepared, and diluted to 5 times with a preculture medium. The dilution (200 μg/ml) was serially diluted twofold with the same medium in a 8-well reservoir. Fifty microliters of each diluted solution was distributed in the wells of a microplate. A well to which no test chemical was added was used as a control.
A mycoplasma suspension for inoculation prepared as in Test Example 1 was pipetted in an amount of 50 microliters to each of the wells. The microplates were sealed by a plate seal, shaken by a micromixer, and cultivated at 37° C. for 5 days. […] At this time, 3 microliters of the liquid culture was inoculated in drug-free Chanock agar medium by using a Cathra-replicator. The liquid culture and the agar medium were further cultivated at 37° C. for 3 days (anaerobically in the case of M. orale, and aerobically in the case of A. laidlawii and M. arginini). MIC and MMC were determined from the results of observation on the 5th day. MIC was defined as the lowest concentration of the test chemical at which growth of mycoplasma in the drug-containing liquid medium was not noted, and MMC, as that in the drug-free agar medium.

[2] = test system: A. laidlawii PG-8; experiment: Anti-mycoplasmal activity (MIC, MMC), liquid dilution method; assay type: cell-based; conditions: Acholeplasma laidlawii, liquid dilution, A. laidlawii PG-8; for MBC: PG8, 120 h, read-out: MMC; for MIC: PG8, read-out: MIC
Description: as §1, §2
(§3) A mycoplasma suspension for inoculation prepared as in Test Example 1 was pipetted in an amount of 50 microliters to each of the wells. The microplates were sealed by a plate seal, shaken by a micromixer, and cultivated at 37° C. for 5 days. In the control to which no test chemical was added, color change of the medium by the growth of mycoplasma was observed after two days from the start of the cultivation. At this time, 3 microliters of the liquid culture was inoculated in drug-free Chanock agar medium by using a Cathra-replicator. The liquid culture and the agar medium were further cultivated at 37° C. for 3 days (anaerobically in the case of M. orale, and aerobically in the case of A. laidlawii and M. arginini). MIC and MMC were determined from the results of observation on the 5th day. MIC was defined as the lowest concentration of the test chemical at which growth of mycoplasma in the drug-containing liquid medium was not noted, and MMC, as that in the drug-free agar medium.

[3] = test system: M. arginini G-230; experiment: as above; assay type: cell-based, Mycoplasma arginini; conditions: Mycoplasmopsis arginini, liquid dilution, M. arginini G-230; for MBC: G230, 120 h, read-out: MMC; for MIC: G230, read-out: MIC
Description: as §1, §2, §3

[4] = test system: A. laidlawii PG8; experiment: Anti-mycoplasmal activity (MIC), agar-dilution method; assay type: cell-based; conditions: Acholeplasma laidlawii; agar dilution; A. laidlawii PG8; read-out: MIC
Description: (§4) The minimum growth inhibitory concentrations (MIC; μg/ml) of the test chemicals were measured by the agar-dilution method.
(§5) (1) Preparation of a mycoplasma suspension for inoculation
(§6) A stored frozen suspension of mycoplasma (0.2 to 0.3 ml) was inoculated in 2 to 3 ml of a preculture medium to be described later. It was serially diluted tenfold until the dilution ratio reached 10,000 times. These diluted solutions were cultivated at 37° C. for 2 to 7 days. A culture having the highest dilution ratio was selected from those cultures in which a color change of the media was noted as a result of mycoplasma growth. It was diluted to 100 times with the preculture medium to prepare a mycoplasma suspension for inoculation.
(§7) The following preculture media were used.
For Mycoplasma pneumoniae and Acholeplasma laidlawii, Chanock liquid medium containing 0.5% glucose (pH 7.8) [Library of Bacteriology 2, "Procedures for Isolation and Identification of Human, Animal and Plant Mycoplasmas", edited by Japanese Society for Bacteriology, page 8 (1982), Saikon Publishing Co.] was used.
(§8) (2) Preparation of agar plates containing the test chemicals
(§9) A 1,000 μg/ml aqueous solution of each test chemical was prepared (a difficultly-soluble chemical was dissolved by adding an equimolar amount of sodium hydroxide; the same applies hereinafter). The solution was used as a base solution and its twofold serial dilutions were prepared. The diluted solutions were pipetted on plastic petri dishes each in an amount of 1 ml. The Chanock agar medium (for Mycoplasma hyorhinis, 0.5% mucin was further added) described at page 9 of the above cited "Procedures for Isolation and Identification of Human, Animal and Plant Mycoplasmas" was heated and kept at 55° C. and put in an amount of 9 ml in each of the petri dishes containing the test chemicals and fully mixed with the test chemicals to prepare agar plates containing the test chemicals.
(§10) The mycoplasma suspension for inoculation prepared by the procedure described in section (1) was inoculated in an amount of about 3 microliters on each of the chemical-containing agar plates by means of a Cathra-replicator (3 mm pin). The plates on which Mycoplasma pneumoniae, Mycoplasma arginini, and Acholeplasma laidlawii and Mycoplasma hyorhinis were inoculated were tightly packed in a plastic bag together with the plasic petri dishes including water-immersed absorbent cotton. Mycoplasma pneumoniae was aerobically cultivated at 37° C. under highly humid conditions for 7 days; and Mycoplasma arginini and Acholeplasma laidlawii, for 2 days. The other mycoplasma species were cultivated anaerobically for 2 days by using a GasPak anaerobic system (BBL). After the cultivation, growth of mycoplasma were observed under an OLYMPUS microscope (20-100 X). The lowest concentration of the test chemical at which no growth of mycoplasma was noted is defined as MIC.

[5] = test system: M. hyorhinis BST7; experiment: as above; assay type: cell-based, Mycoplasma hyorhinis; conditions: Mesomycoplasma hyorhinis; agar dilution; M. hyorhinis BST7; read-out: MIC
Description: as §4, §5, §6, §7
For Mycoplasma hyorhinis, a liquid medium (pH 7.8) for isolation of Mycoplasma hyorhinis [Journal of the Japan Veterinary Medical Association,32, 34-38 (1979)] was used.
as §8, §9, §10

Compound	mode of action at the MIC ([1]; Table 2)	MBC [2] [µg/mL]	MIC [2] [µg/mL]	MBC [3] [µg/mL]	MIC [3] [µg/mL]	MIC [4] [µg/mL]	MIC [5] [µg/mL]	MIC compared with MMC ([1]; Table 2)	anti-mycoplasmal activity compared with control compounds ([1]; Table 2)	mycoplasmacidal activity, overall ([1]; summary)
CN(C)c1ccc(O)c2c1C[C@H]1C[C@H]3[C@H](N(C)C)C(O)=C(C(N)=O)C(=O)[C@@]3(O)C(O)=C1C2=O [Compound 3, minocycline]	acts bacteriostatically, and not mycoplasmacidally, at its MIC	> 100	0.2 (≈ 0.437 µM)	> 100	0.39 (≈ 0.852 µM)	0.2 (≈ 0.437 µM)	0.1 (≈ 0.219 µM)	–	–	–
CC1CN(c2c(F)c(N)c3c(=O)c(C(=O)O)cn(C4CC4)c3c2F)CCN1 (stereo not shown) [Compound 1]	act mycoplasmacidally at the MICs	0.2 (≈ 0.529 µM)	0.2 (≈ 0.529 µM)	0.1 (≈ 0.264 µM)	0.1 (≈ 0.264 µM)	0.1 (≈ 0.264 µM)	0.2 (≈ 0.529 µM)	identical with their MMC values	–	–
NCC1CN(c2c(F)c(N)c3c(=O)c(C(=O)O)cn(C4CC4)c3c2F)CCO1 (stereo not shown) [Compound A, 5-amino-7-(2-aminomethylmorpholino)-1-cyclopropyl-6,8-difluoro-1,4-dihydro-4-oxoquinoline-3-carboxylic acid]	act mycoplasmacidally at the MICs	0.0125 (≈ 0.0317 µM)	0.0125 (≈ 0.0317 µM)	0.05 (≈ 0.127 µM)	0.05 (≈ 0.127 µM)	0.0125 (≈ 0.0317 µM)	0.05 (≈ 0.127 µM)	identical with their MMC values	better than those of the control compounds	excellent mycoplasmacidal activity
